PubChem BioAssay (NCI)
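The compound was tested at five concentrations on cells cultured in 96-well plates, with a 48-hour exposure period. Abbreviation: GI50, concentration required for 50% inhibition of growth. TGI: concentration producing complete growth inhibition.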

Key:
Test in all cases: DTP human tumour cell line panel, 48 h
A498 renal = test system: A498 renal
A549 NSCLC = test system: A549 NSCLC
ACHN renal = test system: ACHN renal
BT-549 breast = test system: BT-549 breast
CAKI-1 renal = test system: CAKI-1 renal
CCRF-CEM leukemia = test system: CCRF-CEM leukemia
COLO 205 colon = test system: COLO 205 colon
DU-145 prostate = test system: DU-145 prostate
EKVX NSCLC = test system: EKVX NSCLC
HCC-2998 colon = test system: HCC-2998 colon
HCT-116 colon = test system: HCT-116 colon
HCT-15 colon = test system: HCT-15 colon
HL-60(TB) leukemia = test system: HL-60(TB) leukemia
HOP-62 NSCLC = test system: HOP-62 NSCLC
HOP-92 NSCLC = test system: HOP-92 NSCLC
HS 578T breast = test system: HS 578T breast
HT29 colon = test system: HT29 colon
IGROV1 ovarian = test system: IGROV1 ovarian
K-562 leukemia = test system: K-562 leukemia
KM12 colon = test system: KM12 colon
LOX IMVI melanoma = test system: LOX IMVI melanoma
M14 melanoma = test system: M14 melanoma
MALME-3M melanoma = test system: MALME-3M melanoma
MCF7 breast = test system: MCF7 breast
MDA-MB-231 breast = test system: MDA-MB-231 breast
MDA-MB-435 = test system: MDA-MB-435
MOLT-4 leukemia = test system: MOLT-4 leukemia
NCI-H226 lung = test system: NCI-H226 lung
NCI-H23 lung = test system: NCI-H23 lung
NCI-H460 lung = test system: NCI-H460 lung
NCI-H522 lung = test system: NCI-H522 lung
NCI/ADR-RES ovarian = test system: NCI/ADR-RES ovarian
OVCAR-3 ovarian = test system: OVCAR-3 ovarian
OVCAR-4 ovarian = test system: OVCAR-4 ovarian
OVCAR-5 ovarian = test system: OVCAR-5 ovarian
OVCAR-8 ovarian = test system: OVCAR-8 ovarian
PC-3 prostate = test system: PC-3 prostate
RPMI-8226 leukemia = test system: RPMI-8226 leukemia
RXF 393 renal = test system: RXF 393 renal
SF-268 CNS = test system: SF-268 CNS
SF-295 CNS = test system: SF-295 CNS
SF-539 CNS = test system: SF-539 CNS
SK-MEL-2 melanoma = test system: SK-MEL-2 melanoma
SK-MEL-28 melanoma = test system: SK-MEL-28 melanoma
SK-MEL-5 melanoma = test system: SK-MEL-5 melanoma
SK-OV-3 ovarian = test system: SK-OV-3 ovarian
SN12C renal = test system: SN12C renal
SNB-75 CNS = test system: SNB-75 CNS
SR leukemia = test system: SR leukemia
SW-620 colon = test system: SW-620 colon
T-47D breast = test system: T-47D breast
TK-10 renal = test system: TK-10 renal
U251 CNS = test system: U251 CNS
UACC-257 melanoma = test system: UACC-257 melanoma
UACC-62 melanoma = test system: UACC-62 melanoma
UO-31 renal = test system: UO-31 renal

## CCCCN1CCN(c2ccc3nc(-c4ccc5nc(-c6ccc(OC)c(OC)c6)[nH]c5c4)[nH]c3c2)CC1
A498 renal
  GI50: 894 nM
  TGI: 2360 nM
A549 NSCLC
  GI50: 1170 nM
  TGI: 3320 nM
ACHN renal
  GI50: 2270 nM
  TGI: 12400 nM
BT-549 breast
  GI50: 1270 nM
  TGI: 2690 nM
CAKI-1 renal
  GI50: 490 nM
  TGI: 3980 nM
CCRF-CEM leukemia
  GI50: 434 nM
  TGI: 2050 nM
COLO 205 colon
  GI50: 173 nM
  TGI: 1360 nM
DU-145 prostate
  GI50: 754 nM
  TGI: 4040 nM
EKVX NSCLC
  GI50: 2140 nM
  TGI: > 100000 nM
HCC-2998 colon
  GI50: 1040 nM
  TGI: 2400 nM
HCT-116 colon
  GI50: 285 nM
  TGI: 1450 nM
HCT-15 colon
  GI50: 3290 nM
  TGI: 30000 nM
HL-60(TB) leukemia
  GI50: 646 nM
  TGI: 2950 nM
HOP-62 NSCLC
  GI50: 1060 nM
  TGI: 5070 nM
HOP-92 NSCLC
  GI50: 1520 nM
  TGI: 6640 nM
HS 578T breast
  GI50: 1300 nM
  TGI: 4310 nM
HT29 colon
  GI50: 389 nM
  TGI: 1980 nM
IGROV1 ovarian
  GI50: 1290 nM
  TGI: 3390 nM
K-562 leukemia
  GI50: 280 nM
  TGI: 1890 nM
KM12 colon
  GI50: 1370 nM
  TGI: 3130 nM
LOX IMVI melanoma
  GI50: 366 nM
  TGI: 1310 nM
M14 melanoma
  GI50: 213 nM
  TGI: 1520 nM
MALME-3M melanoma
  GI50: 73.4 nM
  TGI: 1270 nM
MCF7 breast
  GI50: 196 nM
  TGI: 1560 nM
MDA-MB-231 breast
  GI50: 1540 nM
  TGI: 3100 nM
MDA-MB-435
  GI50: 599 nM
  TGI: 2000 nM
MOLT-4 leukemia
  GI50: 903 nM
  TGI: 3840 nM
NCI-H226 lung
  GI50: 1340 nM
  TGI: 2970 nM
NCI-H23 lung
  GI50: 617 nM
  TGI: 2030 nM
NCI-H460 lung
  GI50: 616 nM
  TGI: 1550 nM
NCI-H522 lung
  GI50: 258 nM
  TGI: 1520 nM
NCI/ADR-RES ovarian
  GI50: > 100000 nM
  TGI: > 100000 nM
OVCAR-3 ovarian
  GI50: 428 nM
  TGI: 1950 nM
OVCAR-4 ovarian
  GI50: 334 nM
  TGI: 1880 nM
OVCAR-5 ovarian
  GI50: 2320 nM
  TGI: 6090 nM
OVCAR-8 ovarian
  GI50: 435 nM
  TGI: 2170 nM
PC-3 prostate
  GI50: 1160 nM
  TGI: 3290 nM
RPMI-8226 leukemia
  GI50: 458 nM
  TGI: 2120 nM
RXF 393 renal
  GI50: 917 nM
  TGI: 2150 nM
SF-268 CNS
  GI50: 1350 nM
  TGI: 6640 nM
SF-295 CNS
  GI50: 647 nM
  TGI: 3540 nM
SF-539 CNS
  GI50: 1220 nM
  TGI: 2630 nM
SK-MEL-2 melanoma
  GI50: 1320 nM
  TGI: 2770 nM
SK-MEL-28 melanoma
  GI50: 857 nM
  TGI: 2240 nM
SK-MEL-5 melanoma
  GI50: 599 nM
  TGI: 2130 nM
SK-OV-3 ovarian
  GI50: 1430 nM
  TGI: 6340 nM
SN12C renal
  GI50: 738 nM
  TGI: 3660 nM
SNB-75 CNS
  GI50: 180 nM
  TGI: 3840 nM
SR leukemia
  GI50: 308 nM
  TGI: 1380 nM
SW-620 colon
  GI50: 306 nM
  TGI: 1760 nM
T-47D breast
  GI50: 399 nM
  TGI: 2850 nM
TK-10 renal
  GI50: 1120 nM
  TGI: 3440 nM
U251 CNS
  GI50: 1050 nM
  TGI: 2260 nM
UACC-257 melanoma
  GI50: 537 nM
  TGI: 2390 nM
UACC-62 melanoma
  GI50: 431 nM
  TGI: 1940 nM
UO-31 renal
  GI50: 8040 nM
  TGI: > 39900 nM
